Data from publication doi:10.1101/2020.07.01.182642v1 (biorxiv, 2020).

Legend:
Details in all cases: binder
[1] = molecular target: RPS6KA2 (Homo sapiens, UniProt Q15349)
[2] = molecular target: CAMK2A (Homo sapiens, UniProt Q9UQM7)
[3] = molecular target: CLK2 (Homo sapiens, UniProt P49760)
[4] = molecular target: RPS6KA6 (Homo sapiens, UniProt Q9UK32)
[5] = molecular target: PIM2 (Homo sapiens, UniProt Q9P1W9)
[6] = molecular target: ZAK (Homo sapiens, UniProt Q9NYL2)
[7] = molecular target: T1, PKMYT1 (Homo sapiens, UniProt Q99640)
T1 sequence (Q99640 1-499): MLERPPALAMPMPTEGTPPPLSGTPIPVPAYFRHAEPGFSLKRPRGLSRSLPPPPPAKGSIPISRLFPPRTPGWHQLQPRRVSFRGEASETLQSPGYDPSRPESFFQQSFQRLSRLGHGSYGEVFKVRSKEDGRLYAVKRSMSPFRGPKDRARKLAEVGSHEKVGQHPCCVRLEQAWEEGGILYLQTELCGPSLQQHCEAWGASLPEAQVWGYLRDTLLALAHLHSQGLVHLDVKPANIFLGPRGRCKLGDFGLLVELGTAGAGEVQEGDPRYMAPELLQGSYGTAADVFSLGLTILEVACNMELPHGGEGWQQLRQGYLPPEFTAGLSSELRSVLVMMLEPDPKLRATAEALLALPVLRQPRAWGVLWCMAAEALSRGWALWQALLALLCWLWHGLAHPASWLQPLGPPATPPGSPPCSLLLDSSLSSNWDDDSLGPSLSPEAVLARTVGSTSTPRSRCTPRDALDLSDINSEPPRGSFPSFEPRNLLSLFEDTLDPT

[8] = molecular target: PKN1 (Homo sapiens, UniProt Q16512)
Chain of PKN1 (Q16512 whole entry): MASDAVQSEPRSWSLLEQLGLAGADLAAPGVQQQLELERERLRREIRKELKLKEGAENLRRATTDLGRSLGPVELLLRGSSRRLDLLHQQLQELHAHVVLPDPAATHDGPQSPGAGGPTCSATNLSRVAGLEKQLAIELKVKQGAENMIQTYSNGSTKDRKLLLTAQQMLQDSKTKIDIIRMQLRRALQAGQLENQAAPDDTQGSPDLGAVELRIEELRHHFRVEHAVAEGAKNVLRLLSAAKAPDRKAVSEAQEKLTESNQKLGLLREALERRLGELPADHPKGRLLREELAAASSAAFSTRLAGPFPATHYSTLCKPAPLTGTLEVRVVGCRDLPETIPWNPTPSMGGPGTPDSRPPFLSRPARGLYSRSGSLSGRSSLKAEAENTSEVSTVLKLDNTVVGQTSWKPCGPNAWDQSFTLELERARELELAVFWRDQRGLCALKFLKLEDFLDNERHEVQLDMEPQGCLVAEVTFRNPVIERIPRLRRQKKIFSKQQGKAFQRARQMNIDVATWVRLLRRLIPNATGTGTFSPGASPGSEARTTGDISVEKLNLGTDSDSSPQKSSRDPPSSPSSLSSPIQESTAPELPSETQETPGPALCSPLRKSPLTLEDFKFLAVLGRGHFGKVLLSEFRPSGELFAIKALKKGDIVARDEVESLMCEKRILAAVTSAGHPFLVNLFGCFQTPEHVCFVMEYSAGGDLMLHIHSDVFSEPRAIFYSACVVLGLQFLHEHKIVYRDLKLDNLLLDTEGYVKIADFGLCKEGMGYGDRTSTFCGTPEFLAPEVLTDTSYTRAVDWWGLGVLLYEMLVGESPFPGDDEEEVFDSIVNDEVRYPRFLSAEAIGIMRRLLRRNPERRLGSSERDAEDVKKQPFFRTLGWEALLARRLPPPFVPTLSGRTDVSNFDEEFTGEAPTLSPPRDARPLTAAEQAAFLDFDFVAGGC

[9] = molecular target: T2, DYRK2 (Homo sapiens, UniProt Q92630)
T2 sequence (Q92630 1-601): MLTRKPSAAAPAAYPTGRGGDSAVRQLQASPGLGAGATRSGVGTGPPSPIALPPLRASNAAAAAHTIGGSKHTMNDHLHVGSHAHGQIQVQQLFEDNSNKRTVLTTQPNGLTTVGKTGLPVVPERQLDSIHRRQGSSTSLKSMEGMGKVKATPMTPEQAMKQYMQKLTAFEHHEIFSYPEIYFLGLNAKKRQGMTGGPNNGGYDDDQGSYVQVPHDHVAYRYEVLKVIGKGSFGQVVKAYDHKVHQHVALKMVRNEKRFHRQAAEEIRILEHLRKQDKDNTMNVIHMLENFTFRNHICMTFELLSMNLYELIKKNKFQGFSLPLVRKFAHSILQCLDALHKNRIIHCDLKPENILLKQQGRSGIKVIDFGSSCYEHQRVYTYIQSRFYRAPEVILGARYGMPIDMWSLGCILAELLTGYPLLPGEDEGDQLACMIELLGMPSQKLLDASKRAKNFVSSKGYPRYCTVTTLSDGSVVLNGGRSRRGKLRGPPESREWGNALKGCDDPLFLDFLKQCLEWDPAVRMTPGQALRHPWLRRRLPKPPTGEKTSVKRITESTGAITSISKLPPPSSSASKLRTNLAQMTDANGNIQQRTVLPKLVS

[10] = molecular target: CDKL1 (Homo sapiens, UniProt Q00532)
Chain of CDKL1 (Q00532 whole entry): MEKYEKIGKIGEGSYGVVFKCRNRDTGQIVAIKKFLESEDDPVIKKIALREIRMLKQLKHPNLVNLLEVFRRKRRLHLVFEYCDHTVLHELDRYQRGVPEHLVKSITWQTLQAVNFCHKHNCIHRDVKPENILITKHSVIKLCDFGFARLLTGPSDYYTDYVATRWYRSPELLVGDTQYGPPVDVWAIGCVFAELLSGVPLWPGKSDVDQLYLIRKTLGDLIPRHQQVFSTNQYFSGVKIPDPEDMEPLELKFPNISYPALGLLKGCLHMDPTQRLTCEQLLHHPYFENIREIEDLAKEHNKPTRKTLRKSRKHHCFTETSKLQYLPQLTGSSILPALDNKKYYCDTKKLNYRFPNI

[11] = molecular target: STK16 (Homo sapiens, UniProt O75716)
Chain of STK16 (O75716 whole entry): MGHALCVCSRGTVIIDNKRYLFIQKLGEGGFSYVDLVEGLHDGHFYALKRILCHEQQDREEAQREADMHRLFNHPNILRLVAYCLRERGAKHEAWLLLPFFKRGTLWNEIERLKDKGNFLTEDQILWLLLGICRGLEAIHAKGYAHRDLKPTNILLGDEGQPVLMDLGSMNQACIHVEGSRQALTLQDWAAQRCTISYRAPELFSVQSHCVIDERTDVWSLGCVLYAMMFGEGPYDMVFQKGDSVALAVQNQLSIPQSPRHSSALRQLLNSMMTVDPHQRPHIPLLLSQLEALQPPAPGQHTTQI

[12] = molecular target: T3, BMX (Homo sapiens, UniProt P51813)
T3 sequence (P51813 1-675): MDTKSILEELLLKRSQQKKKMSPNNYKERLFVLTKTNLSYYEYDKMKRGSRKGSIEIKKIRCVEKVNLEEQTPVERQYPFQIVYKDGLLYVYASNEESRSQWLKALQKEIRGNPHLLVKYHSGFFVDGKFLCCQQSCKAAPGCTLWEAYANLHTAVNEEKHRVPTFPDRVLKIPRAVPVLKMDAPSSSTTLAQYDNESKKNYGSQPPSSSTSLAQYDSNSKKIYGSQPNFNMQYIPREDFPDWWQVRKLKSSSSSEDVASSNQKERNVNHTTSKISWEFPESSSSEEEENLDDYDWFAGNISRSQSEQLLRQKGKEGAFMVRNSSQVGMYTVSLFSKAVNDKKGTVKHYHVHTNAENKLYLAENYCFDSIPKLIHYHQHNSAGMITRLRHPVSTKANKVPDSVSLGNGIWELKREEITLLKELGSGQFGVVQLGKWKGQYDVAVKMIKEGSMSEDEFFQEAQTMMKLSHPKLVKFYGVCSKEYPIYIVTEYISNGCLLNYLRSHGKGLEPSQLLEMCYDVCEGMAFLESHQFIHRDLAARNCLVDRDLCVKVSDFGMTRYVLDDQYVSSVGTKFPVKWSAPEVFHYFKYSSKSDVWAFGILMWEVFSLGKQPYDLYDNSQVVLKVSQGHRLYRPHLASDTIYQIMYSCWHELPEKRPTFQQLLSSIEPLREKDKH

[13] = molecular target: RPS6KA1 (Homo sapiens, UniProt Q15418)
[14] = molecular target: CAMK1D (Homo sapiens, UniProt Q8IU85)
Chain of CAMK1D (Q8IU85 whole entry): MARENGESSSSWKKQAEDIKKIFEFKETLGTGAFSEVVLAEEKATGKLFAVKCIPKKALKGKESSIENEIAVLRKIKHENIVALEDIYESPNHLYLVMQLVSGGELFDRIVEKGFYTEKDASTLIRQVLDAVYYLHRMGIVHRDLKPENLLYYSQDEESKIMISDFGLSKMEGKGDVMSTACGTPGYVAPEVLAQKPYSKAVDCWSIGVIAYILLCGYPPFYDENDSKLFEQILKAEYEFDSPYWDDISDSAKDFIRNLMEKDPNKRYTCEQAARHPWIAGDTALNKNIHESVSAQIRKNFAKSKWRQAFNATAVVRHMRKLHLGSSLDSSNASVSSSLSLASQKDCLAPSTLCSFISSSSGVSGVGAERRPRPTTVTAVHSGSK

Chain of PIM2 (Q9P1W9 whole entry): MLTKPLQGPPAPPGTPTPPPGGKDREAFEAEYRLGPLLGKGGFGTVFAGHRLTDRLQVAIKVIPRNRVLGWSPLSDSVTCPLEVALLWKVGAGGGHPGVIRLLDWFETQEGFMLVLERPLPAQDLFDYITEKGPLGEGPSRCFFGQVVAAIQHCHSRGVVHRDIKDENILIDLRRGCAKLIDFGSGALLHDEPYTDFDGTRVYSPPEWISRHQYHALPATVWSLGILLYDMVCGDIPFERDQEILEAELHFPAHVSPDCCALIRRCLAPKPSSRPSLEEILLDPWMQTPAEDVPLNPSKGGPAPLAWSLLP
Chain of ZAK (Q9NYL2 whole entry): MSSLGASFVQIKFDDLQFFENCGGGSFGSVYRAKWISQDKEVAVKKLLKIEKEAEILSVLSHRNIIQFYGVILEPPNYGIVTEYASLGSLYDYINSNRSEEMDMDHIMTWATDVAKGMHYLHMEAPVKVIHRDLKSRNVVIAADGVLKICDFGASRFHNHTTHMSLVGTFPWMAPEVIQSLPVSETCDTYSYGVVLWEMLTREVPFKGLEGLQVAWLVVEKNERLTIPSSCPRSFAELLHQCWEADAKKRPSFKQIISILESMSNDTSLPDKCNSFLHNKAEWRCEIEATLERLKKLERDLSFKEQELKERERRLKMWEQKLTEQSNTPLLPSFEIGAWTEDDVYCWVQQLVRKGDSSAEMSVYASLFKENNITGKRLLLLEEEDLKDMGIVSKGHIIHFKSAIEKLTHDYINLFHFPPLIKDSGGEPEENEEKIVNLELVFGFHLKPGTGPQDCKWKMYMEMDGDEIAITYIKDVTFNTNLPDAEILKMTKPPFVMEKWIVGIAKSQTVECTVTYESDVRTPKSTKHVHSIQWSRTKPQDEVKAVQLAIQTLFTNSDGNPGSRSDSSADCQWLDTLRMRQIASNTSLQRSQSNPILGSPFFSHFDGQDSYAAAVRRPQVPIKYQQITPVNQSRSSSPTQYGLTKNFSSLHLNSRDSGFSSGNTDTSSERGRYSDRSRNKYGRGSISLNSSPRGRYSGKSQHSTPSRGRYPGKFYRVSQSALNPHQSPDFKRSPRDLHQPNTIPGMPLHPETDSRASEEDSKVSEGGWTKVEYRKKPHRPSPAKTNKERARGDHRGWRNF
Chain of RPS6KA2 (Q15349 whole entry): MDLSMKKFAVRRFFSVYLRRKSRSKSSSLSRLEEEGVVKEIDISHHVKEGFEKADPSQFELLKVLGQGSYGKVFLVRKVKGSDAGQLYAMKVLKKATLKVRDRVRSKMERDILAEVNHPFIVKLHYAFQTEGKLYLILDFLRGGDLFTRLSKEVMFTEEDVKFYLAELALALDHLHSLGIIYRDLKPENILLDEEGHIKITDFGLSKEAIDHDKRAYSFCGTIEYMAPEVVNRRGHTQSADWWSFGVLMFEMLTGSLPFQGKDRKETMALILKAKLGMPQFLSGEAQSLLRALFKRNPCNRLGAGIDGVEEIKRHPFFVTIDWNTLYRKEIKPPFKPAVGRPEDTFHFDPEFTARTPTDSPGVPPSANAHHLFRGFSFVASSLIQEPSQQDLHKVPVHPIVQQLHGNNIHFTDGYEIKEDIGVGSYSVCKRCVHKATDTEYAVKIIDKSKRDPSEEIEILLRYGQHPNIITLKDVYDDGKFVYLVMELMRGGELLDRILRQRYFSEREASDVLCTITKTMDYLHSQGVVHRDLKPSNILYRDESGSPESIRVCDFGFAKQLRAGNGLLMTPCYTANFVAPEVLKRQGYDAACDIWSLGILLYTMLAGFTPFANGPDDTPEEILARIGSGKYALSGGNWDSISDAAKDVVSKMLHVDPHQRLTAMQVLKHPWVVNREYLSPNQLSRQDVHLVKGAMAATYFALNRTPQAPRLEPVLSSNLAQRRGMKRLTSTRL
Chain of CAMK2A (Q9UQM7 whole entry): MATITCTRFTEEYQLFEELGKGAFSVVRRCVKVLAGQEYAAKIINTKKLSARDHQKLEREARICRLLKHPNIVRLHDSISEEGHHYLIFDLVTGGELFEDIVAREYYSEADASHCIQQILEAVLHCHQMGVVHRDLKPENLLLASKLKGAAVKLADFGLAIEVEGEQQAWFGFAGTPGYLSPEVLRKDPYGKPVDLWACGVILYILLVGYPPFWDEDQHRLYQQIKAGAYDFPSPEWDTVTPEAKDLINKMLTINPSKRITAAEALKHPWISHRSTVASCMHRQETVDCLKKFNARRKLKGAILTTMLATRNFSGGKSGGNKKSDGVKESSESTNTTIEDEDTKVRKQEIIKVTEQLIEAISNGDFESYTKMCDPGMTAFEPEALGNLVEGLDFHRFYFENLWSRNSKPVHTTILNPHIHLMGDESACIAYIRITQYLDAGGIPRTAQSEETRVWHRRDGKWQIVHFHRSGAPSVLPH
Chain of CLK2 (P49760 whole entry): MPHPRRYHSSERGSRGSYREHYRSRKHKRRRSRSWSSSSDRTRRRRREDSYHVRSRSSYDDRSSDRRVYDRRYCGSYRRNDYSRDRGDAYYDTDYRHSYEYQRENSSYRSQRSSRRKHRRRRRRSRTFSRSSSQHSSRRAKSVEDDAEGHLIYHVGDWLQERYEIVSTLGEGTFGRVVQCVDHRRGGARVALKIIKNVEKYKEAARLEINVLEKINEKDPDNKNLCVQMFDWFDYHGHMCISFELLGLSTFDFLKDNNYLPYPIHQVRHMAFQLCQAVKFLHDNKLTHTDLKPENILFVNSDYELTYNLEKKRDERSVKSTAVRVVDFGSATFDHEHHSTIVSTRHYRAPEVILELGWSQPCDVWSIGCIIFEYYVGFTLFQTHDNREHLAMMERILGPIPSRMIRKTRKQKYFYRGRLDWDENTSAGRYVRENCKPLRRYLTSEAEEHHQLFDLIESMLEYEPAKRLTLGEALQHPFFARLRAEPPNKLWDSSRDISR

For CCN1/C(=C/C(C)=O)Sc2ccc(OC)cc21 [compound 2, TG003], the “ΔTm inhibitor 2” value [1] was 0.4 °C, the “ΔTm inhibitor 2” value [2] was -0.1 °C and the “ΔTm inhibitor 2” value [3] was 5.0 °C. The “ΔTm inhibitor 2” value [4] was 0.4 °C, the “ΔTm inhibitor 2” value [5] was 3.6 °C and the “ΔTm inhibitor 2” value [6] was -0.3 °C. For the same compound, the “ΔTm inhibitor 2” value [7] was -0.6 °C, the “ΔTm inhibitor 2” value [8] was -0.5 °C and the “ΔTm inhibitor 2” value [9] was 7.3 °C. For the same compound, the “ΔTm inhibitor 2” value [10] was 0.4 °C, the “ΔTm inhibitor 2” value [11] was 0.2 °C and the “ΔTm inhibitor 2” value [12] was -0.1 °C. For the same compound, the “ΔTm inhibitor 2” value [13] was 0.6 °C and the “ΔTm inhibitor 2” value [14] was 0.0 °C.
In the case of CC(=O)c1cccc(-c2cnc3ccc(NCC4CC4)nn23)c1 [compound 1, K00135], the “ΔTm inhibitor 1” value [1] is reported as 2.7 °C, the “ΔTm inhibitor 1” value [2] is reported as 0.5 °C and the “ΔTm inhibitor 1” value [3] is reported as 5.5 °C. The “ΔTm inhibitor 1” value [4] was 4.2 °C, the “ΔTm inhibitor 1” value [5] was 4.7 °C and the “ΔTm inhibitor 1” value [6] was 1.4 °C. The “ΔTm inhibitor 1” value [7] was 0.9 °C, the “ΔTm inhibitor 1” value [8] was 1.7 °C and the “ΔTm inhibitor 1” value [9] was 4.1 °C. For the same compound, the “ΔTm inhibitor 1” value [10] was 0.2 °C, the “ΔTm inhibitor 1” value [11] was 2.3 °C and the “ΔTm inhibitor 1” value [12] was 0.4 °C. The “ΔTm inhibitor 1” value [13] was 5.2 °C and the “ΔTm inhibitor 1” value [14] was 0.6 °C.
In the case of Nc1nccc(-c2ccc3noc(-c4ccc(Cl)cc4)c3c2)n1 [compound 4, K00972], the “ΔTm inhibitor 4” value [1] is reported as 1.0 °C, the “ΔTm inhibitor 4” value [2] is reported as 0.1 °C and the “ΔTm inhibitor 4” value [3] is reported as 7.2 °C. For the same compound, the “ΔTm inhibitor 4” value [4] was 2.1 °C, the “ΔTm inhibitor 4” value [5] was 2.1 °C and the “ΔTm inhibitor 4” value [6] was 0.3 °C. For the same compound, the “ΔTm inhibitor 4” value [7] was 0.1 °C, the “ΔTm inhibitor 4” value [8] was 0.4 °C and the “ΔTm inhibitor 4” value [9] was 8.9 °C. For the same compound, the “ΔTm inhibitor 4” value [10] was 0.8 °C, the “ΔTm inhibitor 4” value [11] was 3.5 °C and the “ΔTm inhibitor 4” value [12] was 0.4 °C. The “ΔTm inhibitor 4” value [13] was 0.6 °C and the “ΔTm inhibitor 4” value [14] was 0.2 °C.
